# Patent US9688666B2, “Lamivudine salts” (Tobira Therapeutics, Inc., priority 2013, dated 2017)
# Tests used:
# Format in all cases: physicochemical
# [1] = Gravimetric vapor sorption (GVS), hygroscopicity; conditions: 25 degrees C, relative humidity 0% to 90% in 10% RH increments
# Source text: A crystalline form can be characterized by gravimetric vapor sorption (GVS). A GVS plot can be a graph of weight gain or loss against relative humidity. The total weight gain or loss is often reported as a weight percent (wt %), the value of which allows for and includes an appropriate margin of error that can be represented by the symbol “±.” For example, a weight change of about 2.0±0.5% can refer to a range from about 2+0.5%, that is, 2.5%, to about […], that is, about 1.5%. Depending on the sample preparation technique, the calibration technique applied to the instrument, human operation variation, the nature of the particular instrument being used, and other factors known to the art, the appropriate margin of error for a weight gain or loss can be about ±2%, about ±1%, about ±0.75%, about ±0.5%, about ±0.25%, or less. Among other things, GVS can be useful for determining whether a crystalline form changes upon exposure to humidity.
# Gravimetric vapor sorption plots were obtained on an ‘Iga Sorp’ vapor sorption balance manufactured by Hidden Analytical Instruments, which was calibrated according to manufacturer recommendations. Samples were dried by maintaining a 0% humidity until no additional weight change was measured. […] After equilibration, the weight change was measured, and the RH was then increased by 10% following the above-described equilibration procedure. […]
# [2] = Storage stability at ambient temperature and humidity, XRPD before and after; conditions: stored in a cupboard at ambient temperature and humidity for 16 weeks
# Procedure: A sample of lamivudine hydrochloride polymorph Form II was analyzed by XRPD, and then stored in a cupboard at ambient temperature and humidity for 16 weeks, after which the sample was re-analyzed by XRPD. FIG. 32 compares the XRPD pattern obtained before storage (top pattern) and after 16 weeks of storage (middle pattern) with the XRPD pattern of lamivudine hydrochloride polymorph Form I obtained by the method of Example 1 (bottom pattern).
# [3] = Competitive slurry of Form I/Form II mixture, product examined by XRPD; conditions: 20 mg Form I + 20 mg Form II suspended in 400 μL acetone or 400 μL isopropanol, shaken at ambient temperature for 72 hours; same result in both cases
# Procedure: A first mixture of 20 mg lamivudine hydrochloride polymorph Form I and 20 mg lamivudine hydrochloride polymorph Form II was suspended in 400 μL of acetone, and a second mixture of 20 mg lamivudine hydrochloride polymorph Form I and 20 mg lamivudine hydrochloride polymorph Form II was suspended in 400 μL isopropanol. Both mixtures were shaken at ambient temperature for 72 hours, after which the resulting product was examined by XRPD. In both cases, the resulting product an XRPD diffraction pattern substantially similar to that of FIG. 6.
Compound,GVS reversible weight gain [1] [%],solid form stability on storage (XRPD) [2],relative thermodynamic stability of polymorphs (form of product by XRPD) [3]
Cl.Nc1ccn([C@@H]2CS[C@H](CO)O2)c(=O)n1 [listing 1 of 2 here],≤ 1,–,–
Cl.Nc1ccn([C@@H]2CS[C@H](CO)O2)c(=O)n1 [listing 2 of 2 here],–,spontaneously converting to lamivudine hydrochloride polymorph Form I after 16 weeks of storage,"less thermodynamically stable than, and transforming into, lamivudine hydrochloride polymorph Form I"
